Like-named read-outs stand apart in the source and are kept apart here. One block for each compound: values may come before it.
Legend:
CYP2D6 [1] = molecular target: T1, CYP2D6 (Homo sapiens, UniProt P10635); assay: CYP2D6 catalyzed metabolism, Michaelis-Menten KM
[2] = Human pharmacokinetics of CYP2D6 substrates (half-life, oral bioavailability, hepatic extraction)
CYP2D6 [3] = molecular target: T1, CYP2D6; conditions: in vivo, via inhibition of CYP2D6; cited from earlier work
CYP2D6 [4] = molecular target: T1, CYP2D6
[5] = in vivo
CYP = conditions: cited from earlier work
[6] = increasing dose; not observed in poor metabolizers; cited from earlier work
[7] = after oral administration of imipramine; extensive metabolizers; cited from earlier work

T1 sequence (P10635 whole entry): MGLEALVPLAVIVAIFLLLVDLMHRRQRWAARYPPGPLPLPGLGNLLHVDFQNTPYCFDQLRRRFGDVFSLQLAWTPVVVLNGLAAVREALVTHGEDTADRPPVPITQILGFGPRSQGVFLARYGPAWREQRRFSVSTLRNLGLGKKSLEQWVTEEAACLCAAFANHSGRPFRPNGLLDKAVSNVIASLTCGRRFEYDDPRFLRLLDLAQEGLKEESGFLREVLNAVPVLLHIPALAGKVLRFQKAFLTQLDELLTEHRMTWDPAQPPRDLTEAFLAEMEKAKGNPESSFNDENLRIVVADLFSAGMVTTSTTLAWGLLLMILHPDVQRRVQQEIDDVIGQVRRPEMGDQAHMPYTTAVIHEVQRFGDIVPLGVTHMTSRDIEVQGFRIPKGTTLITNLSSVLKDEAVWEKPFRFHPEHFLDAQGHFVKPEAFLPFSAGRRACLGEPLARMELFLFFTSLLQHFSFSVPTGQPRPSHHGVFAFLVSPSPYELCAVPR

SMILES: O=C1CCC(=O)N1C[C@H]1CC[C@H]2CN(c3ncccn3)CCN2C1 [sunipetron, (7S,9S)-2-(2-pyrimidyl)-7-(succinamidomethyl)-prehydro-1H-pyrido-[1,2-a]pyrazine]
- Km (CYP2D6 [1]; CYP2D6 substrate): ~1 µM
- human oral bioavailability ([2]; oral): 4.6%

SMILES: C=C[C@H]1C[N@@]2CC[C@H]1C[C@@H]2[C@@H](O)c1ccnc2ccc(OC)cc12 [quinidine]
- effect on metabolizer phenotype (CYP2D6 [3]): converting an extensive metabolizer to the poor metabolizer phenotype

- Km (CYP2D6 [4]): ~1 µM
- human half-life ([5]; human): about 4.7 hours
- human oral bioavailability ([5]; human, po): 1.0%
- hepatic extraction ([5]; iv): exceeds 90%
SMILES: COc1ccccc1CN[C@H]1CCCN[C@H]1c1ccccc1 [(2S,3S)-2-phenyl-3-(2-methoxyphenyl)-methylaminopiperidine]

SMILES: O=c1c(O)c(-c2ccc(O)c(O)c2)oc2cc(O)cc(O)c12 [quercetin]
- CYP inhibitory activity (CYP): exhibit CYP inhibitory activity

SMILES: Fc1ccc([C@@H]2CCNC[C@H]2COc2ccc3c(c2)OCO3)cc1 [paroxetine]
- dose-exposure relationship [6]: supraproportional

SMILES: Cc1cc(O)c2c(=O)c3c(O)cc(O)c4c5c(O)cc(O)c6c(=O)c7c(O)cc(C)c8c1c2c(c34)c(c78)c65 [hypericin]
- CYP inhibitory activity (CYP): exhibit CYP inhibitory activity

SMILES: O=c1c(-c2c(O)cc(O)c3c(=O)cc(-c4ccc(O)cc4)oc23)c(-c2ccc(O)cc2)oc2cc(O)cc(O)c12 [I3, II8-biapigenin]
- CYP inhibitory activity (CYP): exhibit CYP inhibitory activity

- Km (CYP2D6 [1]; human): 3 to 4 µM
- half-life ([2]; in vivo): 3 to 4 h
SMILES: C[C@@H]([C@@H](O)c1ccc(O)cc1)N1CCC(O)(c2ccccc2)CC1 [(1S,2S)-1-(4-hydroxyphenyl)-2-(4-hydroxy-4-phenylpiperidin-1-yl)-1-propanol]

SMILES: CNCCCN1c2ccccc2CCc2ccccc21 [desipramine]
- range of steady state plasma concentrations [7]: 20 fold

SMILES: CN(C)CCCN1c2ccccc2CCc2ccccc21 [imipramine]
- range of steady state plasma concentrations [7]: 20 fold

Source: patent publication US20040018253A1, “Use of CYP2D6 inhibitors in combination therapies” (priority 1999, published 2004)
